Results from patent publication US11590139B2, “Substituted aminopurine compounds, compositions thereof, and methods of treatment therewith” (Signal Pharmaceuticals, LLC, priority 2014, dated 2023).

Tested on: Lox-IMVI melanoma cell line
Experiment: Lox-IMVI anti-proliferative assay (growth inhibition, Cell Titer-Glo)
Type: cell-based, human
Details: Homo sapiens; Lox-IMVI melanoma cell line, anti-proliferative assay; read-out: Activity (IC50 activity level)
Outline: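 Growth inhibition is assessed over 72 h in RPMI + 10% FBS at 0.2% DMSO, with ATP-based luminescence used as the viability measure. IC50 is fitted from normalized dose-response data.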

Row | SMILES | IC50
1 | N#Cc1cc(F)c(Nc2nc3cnc(N[C@@H]4CCOC[C@H]4F)nc3n2[C@H]2CC[C@@H](C(N)=O)CC2)c(Cl)c1 [Example 629, (1S,4s)-4-(8-(2-chloro-4-cyano-6-fluorophenylamino)-2-((3S,4R)-3-fluorotetrahydro-2H-pyran-4-ylamino)-9H-purin-9-yl)cyclohexanecarboxamide] | < 250 nM
2 | NC(=O)[C@H]1CC[C@@H](n2c(Nc3c(F)cc(F)cc3Cl)nc3cnc(N[C@@H]4CCOC[C@H]4F)nc32)CC1 [Example 630, (1S,4s)-4-(8-(2-chloro-4,6-difluorophenylamino)-2-((3S,4R)-3-fluorotetrahydro-2H-pyran-4-ylamino)-9H-purin-9-yl)cyclohexanecarboxamide] | < 250 nM
3 | C[C@]1(C(N)=O)CC[C@@H](n2c(Nc3c(F)cc(Cl)cc3F)nc3cnc(N[C@H]4CCC[C@@H](O)C4)nc32)CC1 [Example 632, (1R,4s)-4-(8-(4-chloro-2,6-difluorophenylamino)-2-((1S,3R)-3-hydroxycyclohexylamino)-9H-purin-9-yl)-1-methylcyclohexanecarboxamide] | 500 to 1000 nM
4 | C[C@]1(C(N)=O)CC[C@@H](n2c(Nc3c(F)cc(C#N)cc3Cl)nc3cnc(N[C@H]4CCC[C@@H](O)C4)nc32)CC1 [Example 633, (1R,4s)-4-(8-(2-chloro-4-cyano-6-fluorophenylamino)-2-((1S,3R)-3-hydroxycyclohexylamino)-9H-purin-9-yl)-1-methylcyclohexanecarboxamide] | 500 to 1000 nM
5 | C[C@]1(C(N)=O)CC[C@@H](n2c(Nc3c(F)cc(F)cc3F)nc3cnc(N[C@@H]4CC[C@@H](O)C4)nc32)CC1 [Example 634, (1S,4s)-4-(2-((1R,3R)-3-hydroxycyclopentylamino)-8-(2,4,6-trifluorophenylamino)-9H-purin-9-yl)-1-methylcyclohexanecarboxamide] | 500 to 1000 nM
6 | C[C@]1(C(N)=O)CC[C@@H](n2c(Nc3c(F)cc(F)cc3Cl)nc3cnc(N[C@@H]4CC[C@@H](O)C4)nc32)CC1 [Example 635, (1S,4s)-4-(8-(2-chloro-4,6-difluorophenylamino)-2-((1R,3R)-3-hydroxycyclopentylamino)-9H-purin-9-yl)-1-methylcyclohexanecarboxamide] | 250 to 500 nM

Further lines, results first:

Row | IC50 | SMILES
7 | 500 to 1000 nM | C[C@]1(C(N)=O)CC[C@@H](n2c(Nc3c(F)cc(F)cc3Cl)nc3cnc(N[C@H]4CCC[C@@H](O)C4)nc32)CC1 [Example 626, (1R,4s)-4-(8-(2-chloro-4,6-difluorophenylamino)-2-((1S,3R)-3-hydroxycyclohexylamino)-9H-purin-9-yl)-1-methylcyclohexanecarboxamide]
8 | < 250 nM | C[C@]1(C(N)=O)CC[C@@H](n2c(Nc3c(Cl)cc(Cl)cc3Cl)nc3cnc(N[C@H]4CCC[C@@H](O)C4)nc32)CC1 [Example 627, (1R,4s)-4-(2-((1S,3R)-3-hydroxycyclohexylamino)-8-(2,4,6-trichlorophenylamino)-9H-purin-9-yl)-1-methylcyclohexanecarboxamide]
9 | < 250 nM | C[C@]1(C(N)=O)CC[C@@H](n2c(Nc3c(F)cc(Cl)cc3Cl)nc3cnc(N[C@H]4CCC[C@@H](O)C4)nc32)CC1 [Example 628, (1R,4s)-4-(8-(2,4-dichloro-6-fluorophenylamino)-2-((1S,3R)-3-hydroxycyclohexylamino)-9H-purin-9-yl)-1-methylcyclohexanecarboxamide]
10 | 500 to 1000 nM | C[C@]1(C(N)=O)CC[C@@H](n2c(Nc3c(Cl)cc(F)cc3Cl)nc3cnc(N[C@H]4CCC[C@@H](O)C4)nc32)CC1 [Example 631, (1R,4s)-4-(8-(2,6-dichloro-4-fluorophenylamino)-2-((1S,3R)-3-hydroxycyclohexylamino)-9H-purin-9-yl)-1-methylcyclohexanecarboxamide]
11 | < 250 nM | C[C@]1(C(N)=O)CC[C@@H](n2c(Nc3c(Cl)cc(Cl)cc3Cl)nc3cnc(N[C@@H]4CC[C@@H](O)C4)nc32)CC1 [Example 636, (1S,4s)-4-(2-((1R,3R)-3-hydroxycyclopentylamino)-8-(2,4,6-trichlorophenylamino)-9H-purin-9-yl)-1-methylcyclohexanecarboxamide]
